Data: the CheMixHub ionic liquid set

Experiment: xn = mol fraction of the nth substance listed
Conditions: for viscosity: 101 kPa; for electrical conductivity: 100 kPa

CCCC[N+]1(C)CCCCC1.N#C[S-] + O
Conditions	viscosity [mPa·s]
318.15 K, x2 = 0.3741	57.3
328.15 K, x2 = 0.2774	59.4
328.15 K, x2 = 0.3741	37.2
328.15 K, x2 = 0.6302	13.48
338.15 K, x2 = 0.2774	39.6
348.15 K, x2 = 0.5111	11.92

c1ccsc1 + CCCCCCCC[n+]1ccc2ccccc2c1.O=S(=O)([N-]S(=O)(=O)C(F)(F)F)C(F)(F)F
Conditions	viscosity [mPa·s]
348.15 K, x1 = 1	0.34

CCn1cc[n+](C)c1.N[C@@H](CO)C(=O)[O-] + O
Conditions	electrical conductivity [S/m]
303.15 K, x1 = 0.9276	0.0944
308.15 K, x1 = 0.9133	0.132
313.15 K, x1 = 0.9133	0.169
313.15 K, x1 = 0.9276	0.166
318.15 K, x1 = 0.8699	0.223
318.15 K, x1 = 0.884	0.221
323.15 K, x1 = 0.9133	0.269
328.15 K, x1 = 0.884	0.346
333.15 K, x1 = 0.8699	0.436
333.15 K, x1 = 0.884	0.432
338.15 K, x1 = 0.9276	0.511
